Measured values reported in patent publication US10473666B2, “Dye compounds” (SFC CO., LTD., priority 2015, dated 2019).

What was measured:
[1] = tested on: goat anti-mouse IgG; test: Absorption and fluorescence emission spectra of goat anti-mouse IgG labeled with the dye
Protocol: Goat anti-mouse IgG was labeled with Alexa Fluor® 568 (Thermo Fisher Scientific) and the compound of Formula 1 and their absorption spectra and fluorescence emission spectra were recorded.
FIG. 1a is an absorption spectrum of goat anti-mouse IgG labeled with the compound of Formula 1, FIG. 1b is an absorption spectrum of goat anti-mouse IgG labeled with Alexa Fluor® 568, FIG. 1c is a fluorescence emission spectrum of goat anti-mouse IgG labeled with the compound of Formula 1, and FIG. 1d is a fluorescence emission spectrum of goat anti-mouse IgG labeled with Alexa Fluor® 568.
Goat anti-mouse IgG was labeled with Alexa Fluor® 594 (Thermo Fisher Scientific) and the compound of Formula 3 and their absorption spectra and fluorescence emission spectra were recorded.
FIG. 2a is an absorption spectrum of goat anti-mouse IgG labeled with the compound of Formula 3, FIG. 2b is an absorption spectrum of goat anti-mouse IgG labeled with Alexa Fluor® 594, FIG. 2c is a fluorescence emission spectrum of goat anti-mouse IgG labeled with the compound of Formula 3, and FIG. 2d is a fluorescence emission spectrum of goat anti-mouse IgG labeled with Alexa Fluor® 594.

[2] = Absorption spectra, emission spectra, molar extinction coefficients and quantum yields of the dye compounds; format: physicochemical; settings: Table 1; solvent DMSO
Protocol: Absorption spectra (λabs), emission spectra (λem), molar extinction coefficients (ε), and quantum yields of the compounds of Formulae 1-7 were measured and the results are shown in Table 1.
Absorption spectra (λabs), emission spectra (λem), molar extinction coefficients, and quantum yields of the compounds of Formulae 44-53 were measured and the results are shown in Table 4.
The products of the two factors (molar extinction coefficient×fluorescence quantum yield) for the inventive dye compounds were much greater than that for the comparative compound.

[3] = as above; format: physicochemical
[4] = tested on: IgG from mouse serum (primary); test: FLISA plate fluorescence (bioactivity) of dye-conjugated secondary antibody on coated primary IgG; format: binding; settings: for D/P ratio at which the dye-secondary antibody was conjugated to the primary antibody with the highest efficiency: dye-conjugated goat anti-mouse IgG on IgG from mouse serum; for Fluorescence: dye-conjugated goat anti-mouse IgG
Protocol: 1. IgG from mouse serum (primary) was dissolved to a concentration of 10 μg/ml in coating buffer.
2. 100 μl of the solution was divided into each well of a FLISA H/B black corning plate.
3. After top sealing, the plate was incubated in the dark at room temperature for 2 h.
4. Each well was washed three times with 300 μl of washing buffer.
5. 300 μl of blocking buffer was placed into each well. After top sealing, the plate was incubated in the dark at room temperature for 1 h.
6. After removal of the blocking buffer, the wells were washed three times with washing buffer.
7. 100 μl of a dye-conjugated secondary antibody (10 μg/ml) was placed into each well. After top sealing, the plate was incubated in the dark at room temperature for 1 h.
8. After removal of the solution, each well was washed three times with 200 μl of washing buffer.
9. 100 μl of PBS was placed into each sample-containing well.
10. Fluorescence was measured with a microplate reader.
The procedure of Experimental Example 4 was repeated except that the compound of Formula 3 was used.
The procedure of Experimental Example 4 was repeated except that the compound of Formula 50 was used.

[5] = Photophysical properties incl. two-photon cross-sections (femtosecond fluorescence measurement technique); format: physicochemical
Protocol: All measurements were performed in DMSO, ethanol, and PBS buffer. Two-photon cross-sections (δ) were measured using a femtosecond (fs) fluorescence measurement technique.

[6] = tested on: mitochondria, HeLa A431 cells; test: Selectivity for mitochondria: co-localization with MitoTracker Green FM in HeLa A431 cells; format: cell-based; settings: dye 0.5 μM
Protocol: The specific selectivity of the compound of Formula 97 for mitochondria was investigated. To this end, HeLa A431 cells were co-localized with the compound of Formula 97 and a commercially available mitochondrial marker (MTG, 0.2 μM MitoTracker Green FM for mitochondria).
OPM images were acquired at 571-650 nm (Formula 97, λex=552 nm) and 498-540 nm (MTG, λex=488 nm) and are shown in FIGS. 6a and 6b, respectively. FIG. 6c is a merged image of FIGS. 6a and 6b. The Pearson's co-localization coefficient (A) was calculated using the LAS AF software. [MTG]=0.2μM for 30 min incubation,λex=488 nm [Formula 97]=0.5μM for 30 min incubation,λex=552 nm

[7] = Characterization as pH probes: fluorescence intensity versus pH; format: physicochemical; settings: for fluorescence intensity under acidic conditions: pH 1-6; for fluorescence intensity under basic conditions: pH 9-12
Source text: In addition, the absorption and fluorescence wavelengths of the compound of Formula 97 well match currently available laser lines (488 nm, 532 nm, and 550 nm).
That is, the compound of Formula 111 as a pH probe emitted strong fluorescence at pH 2-6 and the compound of Formula 97 as a pH probe emitted strong fluorescence at pH 8-12.

[8] = tested on: HeLa A431 cells; test: Photostability: fluorescence intensity over time in stained HeLa A431 cells; format: cell-based; settings: HeLa A431 cells stained with 1.0 μM dye; for change of fluorescence intensity over time: measured at 2-sec intervals for 3500 sec
Protocol: The fluorescence intensities of three areas A, B, and C of HeLa A431 cells stained with the compound of Formula 110 (1.0 μM) were measured at 2-sec intervals for 3500 sec.
The fluorescence intensities of four areas A, B, C, and D of HeLa A431 cells stained with the compound of Formula 98 (1.0 μM) were measured at 2-sec intervals for 3500 sec.
The fluorescence intensities of two areas A and B of HeLa A431 cells stained with Cy3B (1.0 μM) were measured at intervals of 2 s for 2000 s.

[9] = tested on: mitochondria, Raw 264.7 cells; test: Selectivity for mitochondria: co-localization with MitoTracker Green FM in Raw 264.7 cells; format: cell-based; settings: dye 1 μM
Protocol: The specific selectivity of the compound of Formula 110 for mitochondria was investigated. To this end, Raw 264.7 cells were co-localized with the compound of Formula 110 and a commercially available mitochondrial marker (MTG, 1 μM MitoTracker Green FM for mitochondria).
OPM images were acquired at 560-600 nm (Formula 110, λex=552 nm) and 470-520 nm (MTG, λex=488 nm) and are shown in FIGS. 4a and 4b, respectively. FIG. 4c is a merged image of FIGS. 4a and 4b. The Pearson's co-localization coefficient (A) was calculated using the LAS AF software. [MTG]=1μM for 30 min incubation,λex=488 nm [Formula 110]=1μM for 30 min incubation,λex=552 nm

[10] = dye-conjugated secondary antibody, plate fluorescence

Structure (SMILES)	fluorescence emission intensity compared with the Alexa Fluor dye [1]	Q.Y. (quantum yield) [2]	λabs [2]	ε (molar extinction coefficient) ([3]; Table 1, solvent DMSO)	λem ([3]; Table 1, solvent DMSO)	D/P ratio at which the dye-secondary antibody was conjugated to the primary antibody with the highest efficiency [4]	bioactivity compared with the Alexa Fluor dye [4, 10]	Quantum yield ([3]; Table 6, solvent DMSO)	ε (molar extinction coefficient) ([3]; Table 6, solvent DMSO)	λabs ([3]; Table 6, solvent DMSO)	λem ([3]; Table 6, solvent DMSO)	Quantum yield ([3]; Table 6, solvent EtOH)	ε (molar extinction coefficient) ([3]; Table 6, solvent EtOH)	λabs ([3]; Table 6, solvent EtOH)	λem ([3]; Table 6, solvent EtOH)	Quantum yield ([3]; Table 6, solvent PBS)	ε (molar extinction coefficient) ([3]; Table 6, solvent PBS)	λabs ([3]; Table 6, solvent PBS)	λem ([3]; Table 6, solvent PBS)	pH at which the pH probe emitted strong fluorescence [7]	other results
CC1(CCCCCC(=O)O)C2=[N+](CCC3Oc4cc(N(CCCS(=O)(=O)O)CCCS(=O)(=O)O)ccc4C=C23)c2ccc(S(=O)(=O)[O-])cc21 (stereo not shown) [Formula 1]	higher than that of Alexa Fluor® 568	0.91	584 nm	66,000 M^−1cm^−1	617 nm	~4.8	better bioactivity than Alexa Fluor® 568														aggregation compared with the Alexa Fluor dye [1]: less aggregated than Alexa Fluor® 568; Fluorescence ([4]; D/P ratio 2.202771): 104.026; Fluorescence ([4]; D/P ratio 4.888795): 127.5422; Fluorescence ([4]; D/P ratio 8.141409): 95.4; Fluorescence ([4]; D/P ratio 11.30465): 91.8519; Fluorescence ([4]; D/P ratio 12.45994): 75.1; brightness values compared with the Alexa Fluor dye [4, 10]: much higher than those of Alexa Fluor® 568
CC1(CCCCCC(=O)O)C2=[N+](CCC3Oc4cc5c(cc4C=C23)C(CS(=O)(=O)O)CC(C)(C)N5CCCS(=O)(=O)O)c2ccc(S(=O)(=O)[O-])cc21 (stereo not shown) [Formula 3]	higher than that of Alexa Fluor® 594	0.87	595 nm	64,000 M^−1cm^−1	624 nm	~3.4	better bioactivity than Alexa Fluor® 594														Fluorescence ([4]; D/P ratio 2.54): 64.89; Fluorescence ([4]; D/P ratio 3.47): 83.79; Fluorescence ([4]; D/P ratio 4.86): 78.61; Fluorescence ([4]; D/P ratio 5.18): 80.28; Fluorescence ([4]; D/P ratio 5.95): 68.06; brightness values compared with the Alexa Fluor dye ([4]; when the D/P ratio was ≥5): much higher than those of Alexa Fluor® 594
CC1(C)C2=C3C=C4C=CC(=O)C=C4OC3CCN2c2ccccc21 (stereo not shown) [Formula 97]								0.94	35,000 M^−1cm^−1	551 nm	568 nm	0.90	47,000 M^−1cm^−1	555 nm	567 nm	0.63	14,000 M^−1cm^−1	541 nm	565 nm	8-12 pH	d: Peak two-photon cross-section ([5]; Buffer (PBS buffer)): 35 10^−50 cm^4s per photon (GM); dΦ: Two-photon action cross-section ([5]; Buffer (PBS buffer)): 22 GM; Φ: Fluorescence quantum yield ([5]; Buffer (PBS buffer)): 0.63; λ^(2)max^abs: Maximum wavelength in two-photon absorption spectrum ([5]; Buffer (PBS buffer)): 920 nm; λmax^fl: Maximum wavelength in single-photon emission spectrum ([5]; Buffer (PBS buffer)): 565 nm; eΦ: Molar extinction coefficient × fluorescence quantum yield ([5]; Buffer (PBS buffer), in M-1cm-1): 8820; Φ: Fluorescence quantum yield ([5]; DMSO): 0.94; λmax^fl: Maximum wavelength in single-photon emission spectrum ([5]; DMSO): 567 nm; dΦ: Two-photon action cross-section ([5]; EtOH): 14 GM; λ^(2)max^abs: Maximum wavelength in two-photon absorption spectrum ([5]; EtOH): 720 nm; staining selectivity for mitochondria [6]: mitochondria were predominantly stained; degree of overlapping (A), Pearson's co-localization coefficient with Mitotracker Green FM ([6]; MTG 0.2 μM, 30 min incubation, LAS AF software): 0.74; fluorescence intensity under acidic conditions [7]: decreased; fluorescence intensity under basic conditions [7]: increased
CCN(CC)c1ccc2c(c1)OC1CC[N+]3=C(C1=C2)C(C)(C)c1ccccc13 (stereo not shown) [Formula 98]								0.77	57,000 M^−1cm^−1	570 nm	601 nm	0.78	64,000 M^−1cm^−1	570 nm	596 nm	0.51	57,000 M^−1cm^−1	565 nm	595 nm		photostability [8]: good photostability; change of fluorescence intensity over time [8]: no substantial decreases in fluorescence intensity for 1 h
CNc1ccc2c(c1)OC1CC[N+]3=C(C1=C2)C(C)(C)c1ccccc13 (stereo not shown) [Formula 110]								0.86	37,000 M^−1cm^−1	561 nm	597 nm	0.80	50,000 M^−1cm^−1	558 nm	584 nm	0.78	37,000 M^−1cm^−1	550 nm	579 nm		photostability [8]: good photostability; change of fluorescence intensity over time [8]: no substantial decreases in fluorescence intensity for 1 h; staining selectivity for mitochondria [9]: mitochondria were predominantly stained; degree of overlapping (A), Pearson's co-localization coefficient with Mitotracker Green FM ([9]; MTG 1 μM, 30 min incubation, LAS AF software): 0.73
CC1(C)C2=[N+](CCC3Oc4cc(N5CCN(CCCCCC(=O)O)CC5)ccc4C=C23)c2ccccc21 (stereo not shown) [Formula 111]																				2-6 pH	Quantum yield ([3]; Table 6, solvent PBS (pH 7.4)): 0.53; ε (molar extinction coefficient) ([3]; Table 6, solvent PBS (pH 7.4)): 55,000 M^−1cm^−1; λabs ([3]; Table 6, solvent PBS (pH 7.4)): 530 nm; λem ([3]; Table 6, solvent PBS (pH 7.4)): 585 nm; fluorescence intensity under acidic conditions [7]: increased; fluorescence intensity under basic conditions [7]: decreased
